One test relates to mice spleen cells. As to the kind of experiment: IL-6 kinetics: IL-6 release over time from mice spleen cells. It counts as cell-based, mouse. Conditions: for IL-6: 100 μg/mL, mice spleen cells, ± SD. As for the experimental part: (§1) Salt forms of EP67 (SEQ ID NO:2) generated using the above procedures were incubated at varying concentrations with murine splenocytes over time.
Next, IL-6 kinetics were investigated by incubating mice spleen cells with 100 μg/mL of each salt form, and the release was examined over time.

The subject of a further test is mouse spleen cells. The test can be described thus: 24-hour dose response: IL-6 release from mouse spleen cells (ELISA of supernatants). It counts as cell-based. Conditions: for IL-6: 24 hrs incubation, mouse spleen cells, ± SD. On the procedure:
as §1
A 24-hour dose response was investigated by incubating mouse spleen cells for 24 hrs with varying concentrations of the EP67 salts. Supernatants were collected and assayed for IL-6 by ELISA.

Non-standard residues stand in square brackets, D forms with d. No end group written: not given here. NMeL = CN[C@@H](CC(C)C)C(=O)O

On to “EP67•HCl: HCl salt form of EP67 (SEQ ID NO:2), a response selective C-terminal analog of C5a (YSFKDMP[NMeL][dA]R-OH; also: HCl salt)”, for which the IL-6 with mice spleen cells (time collected 6 hr) was 47 ± 1 pg/mL; in the test with mice spleen cells (time collected 24 hr) it was 1163 ± 2 pg/mL; in the test with mice spleen cells (time collected 48 hr) it was 923 ± 6 pg/mL; in the test with mice spleen cells (time collected 72 hr), 200 ± 11 pg/mL; with mouse spleen cells (0.1 μg/mL activator) it was 176 ± 3 pg/mL; in the test with mouse spleen cells (1.0 μg/mL activator), 225 ± 1 pg/mL. Also, the IL-6 with mouse spleen cells (10 μg/mL activator) amounted to 738 ± 5 pg/mL; in the test on mouse spleen cells (100 μg/mL activator), 1163 ± 2 pg/mL. Moreover, the “kinetics of IL-6 release (time to maximal release), compared with other salt forms” value with mice spleen cells (murine splenocytes, over time) is recorded as “maximal IL-6 release quicker than the other two salt forms”. For the same substance, the “total amount of cytokine (IL-6) released from murine splenocytes, compared with other salt forms” value in the test with mouse spleen cells (varying concentrations, murine splenocytes) is listed as “outperformed the acetate (OAc) and, particularly, the TEA salt forms”.

Consider “EP67•OAc^−: acetate salt form of EP67 (SEQ ID NO:2), comparator salt (YSFKDMP[NMeL][dA]R-OH; also: acetate salt)”, for which the IL-6 in the test with mice spleen cells (time collected 6 hr) was found to be 188 ± 1 pg/mL; with mice spleen cells (time collected 24 hr), 325 ± 23 pg/mL; with mice spleen cells (time collected 48 hr) it was 900 ± 17 pg/mL; in the test with mouse spleen cells (0.1 μg/mL activator), 188 ± 1 pg/mL; in the test on mouse spleen cells (1.0 μg/mL activator), 325 ± 23 pg/mL; in the test with mouse spleen cells (10 μg/mL activator), 225 ± 20 pg/mL. The IL-6 in the test with mouse spleen cells (100 μg/mL activator) is 780 ± 9 pg/mL.

As to “EP67•TFA: TFA salt form of EP67 (SEQ ID NO:2), comparator salt (YSFKDMP[NMeL][dA]R-OH; also: TFA salt)”, the IL-6 in the test with mice spleen cells (time collected 6 hr) is 55 ± 1 pg/mL; in the test on mice spleen cells (time collected 24 hr), 803 ± 6 pg/mL; in the test on mice spleen cells (time collected 48 hr), 442 ± 13 pg/mL; in the test on mice spleen cells (time collected 72 hr), 75 ± 6 pg/mL; with mouse spleen cells (0.1 μg/mL activator), 178 ± 1 pg/mL; in the test on mouse spleen cells (1.0 μg/mL activator), 185 ± 2 pg/mL. Also, the IL-6 came to 308 ± 7 pg/mL in the test on mouse spleen cells (10 μg/mL activator) and 803 ± 6 pg/mL in the test on mouse spleen cells (100 μg/mL activator).

(Values after patent publication US12552848B2, “Hydrochloride salts of C5a receptor agonist peptides” (Board of Regents of the University of Nebraska, priority 2017, dated 2026).)
